Test results taken from patent publication US6337417B1, “N-phenyltetrahydrophthalamic acid derivatives, methods of producing same, and herbicides containing same as effective components” (Central Glass Co., Ltd., priority 1994, dated 2002).

Columns and labels:
Assay type in all cases: in vivo
paddy rice = assay: Experiment 4 flooded soil treatment: injury to paddy rice; parameters: key: 5: completely killed; 4: seriously injured; 3: considerably injured; 2: somewhat injured; 1: slightly injured; 0: not injured (normally grown); details: 4 weeks after treatment
Outline: (§1)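 Clay-loam paddy soil was sown with mixed weed seeds, planted with 2–3-leaf rice seedlings at 2 cm depth and flooded to 3 cm. After 3 days, at early barnyardgrass germination, a set amount of compound as a diluted aqueous solution was dropped into the water. Herbicidal effect and rice injury were scored 4 weeks after treatment under glass.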

[1] = test system: nobie (barnyardgrass, Echinochloa spp.); assay: Experiment 4 flooded soil treatment: nobie; parameters: key: 5: completely killed; 4: seriously injured; 3: considerably injured; 2: somewhat injured; 1: slightly injured; 0: not injured (normally grown); details: 4 weeks after treatment
Outline: as §1

broad-leaved weeds = assay: Experiment 4 flooded soil treatment: broad-leaved weeds; parameters: key: 5: completely killed; 4: seriously injured; 3: considerably injured; 2: somewhat injured; 1: slightly injured; 0: not injured (normally grown); details: 4 weeks after treatment
Outline: as §1

[2] = test system: hotarui (bulrush, Scirpus juncoides); assay: Experiment 4 flooded soil treatment: hotarui; details: 4 weeks after treatment
Outline: as §1

[3] = test system: tamagayatsuri (small-flowered umbrellaplant, Cyperus difformis); assay: Experiment 4 flooded soil treatment: tamagayatsuri; parameters: key: 5: completely killed; 4: seriously injured; 3: considerably injured; 2: somewhat injured; 1: slightly injured; 0: not injured (normally grown); details: 4 weeks after treatment
Outline: as §1

rice = assay: Experiment 5 foliage treatment: rice; parameters: key: 5: completely killed; 4: seriously injured; 3: considerably injured; 2: somewhat injured; 1: slightly injured; 0: not injured (normally grown); details: foliage spray of wettable powder suspension, evaluated 4 weeks after treatment
Outline: (§2)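 Compounds sprayed as wettable powder suspension onto pot-grown plants at the two- to three-leaf stage. Plants kept in a glasshouse and herbicidal effect scored 4 weeks after treatment.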

[4] = test system: cockspur (Panicum crus-galli); assay: Experiment 5 foliage treatment: cockspur; parameters: key: 5: completely killed; 4: seriously injured; 3: considerably injured; 2: somewhat injured; 1: slightly injured; 0: not injured (normally grown); details: foliage spray of wettable powder suspension, evaluated 4 weeks after treatment
Outline: as §2

garden radish = assay: Experiment 5 foliage treatment: garden radish; parameters: key: 5: completely killed; 4: seriously injured; 3: considerably injured; 2: somewhat injured; 1: slightly injured; 0: not injured (normally grown); details: foliage spray of wettable powder suspension, evaluated 4 weeks after treatment
Outline: as §2

[5] = test system: aobiyu (slender amaranth, Amaranthus viridis); assay: Experiment 5 foliage treatment: aobiyu; parameters: key: 5: completely killed; 4: seriously injured; 3: considerably injured; 2: somewhat injured; 1: slightly injured; 0: not injured (normally grown); details: foliage spray of wettable powder suspension, evaluated 4 weeks after treatment
Outline: as §2

[6] = test system: mehishiba (henry crabgrass, Digitaria cliaris); assay: Experiment 5 foliage treatment: mehishiba; parameters: key: 5: completely killed; 4: seriously injured; 3: considerably injured; 2: somewhat injured; 1: slightly injured; 0: not injured (normally grown); details: foliage spray of wettable powder suspension, evaluated 4 weeks after treatment
Outline: as §2

[7] = test system: ichibi (velvetleaf, Abutilon theophrasti); assay: Experiment 6 foliage treatment: ichibi; parameters: key: 5: completely killed; 4: seriously injured; 3: considerably injured; 2: somewhat injured; 1: slightly injured; 0: not injured (normally grown); details: foliage spray of wettable powder suspension, evaluated 4 weeks after treatment
Protocol: (§3) Upon seedling stage (two- or three-leaved stage) of ichibi (velvetleaf, Abutilon theophrasti), onamomi (heartleaf cocklebur, Xanthium strumarium) (4 L stage), noasagao (blue morningglory, Ipomoea indica) and ooinutade (pale smartweed, Persicaria lapathifolia) which were grown on a cultivated soil put in pots of 1/8850 ares, a selected compound obtained in a manner analogous to Example 11, in suspended wettable powder, was sprayed to each plant. After that, the pots were kept in a glass chamber to allow each plant to grow, and after the lapse of 4 weeks from the treatment with the selected compounds the herbicidal effects were evaluated. The evaluation of the herbicidal effects was similarly conducted as that of Experiment 1.

[8] = test system: onamomi (heartleaf cocklebur, Xanthium strumarium); assay: Experiment 6 foliage treatment: onamomi; parameters: key: 5: completely killed; 4: seriously injured; 3: considerably injured; 2: somewhat injured; 1: slightly injured; 0: not injured (normally grown); details: foliage spray of wettable powder suspension, evaluated 4 weeks after treatment
Protocol: as §3

[9] = test system: noasagao (blue morningglory, Ipomoea indica); assay: Experiment 6 foliage treatment: noasagao; parameters: key: 5: completely killed; 4: seriously injured; 3: considerably injured; 2: somewhat injured; 1: slightly injured; 0: not injured (normally grown); details: foliage spray of wettable powder suspension, evaluated 4 weeks after treatment
Protocol: as §3

[10] = test system: ooinutade (pale smartweed, Persicaria lapathifolia); assay: Experiment 6 foliage treatment: ooinutade; parameters: key: 5: completely killed; 4: seriously injured; 3: considerably injured; 2: somewhat injured; 1: slightly injured; 0: not injured (normally grown); details: foliage spray of wettable powder suspension, evaluated 4 weeks after treatment
Protocol: as §3

N-[4-chloro-2-fluoro-5-(1-methylpropargyloxy)phenyl]-N-nicotinyl-3,4,5,6-tetrahydrophthalamic acid methyl ester [compound 57]
Injury of Paddy (paddy rice; 3.13 g/10a): 0
Injury of Paddy (paddy rice; 6.25 g/10a): 0.5
Herbicidal Effect nobie ([1]; 3.13 g/10a): 5
Herbicidal Effect nobie ([1]; 6.25 g/10a): 5
Herbicidal Effect broad-leaved weed (broad-leaved weeds; 3.13 g/10a): 5
Herbicidal Effect broad-leaved weed (broad-leaved weeds; 6.25 g/10a): 5
Herbicidal Effect hotarui ([2]; 3.13 g/10a): 4.5
Herbicidal Effect hotarui ([2]; 6.25 g/10a): 4.5
Herbicidal Effect tamagayatsuri ([3]; 3.13 g/10a): 5
Herbicidal Effect tamagayatsuri ([3]; 6.25 g/10a): 5
Herbicidal Effect rice (rice; 40 g/10a): 1
Herbicidal Effect rice (rice; 80 g/10a): 1
Herbicidal Effect cockspur ([4]; 40 g/10a): 1
Herbicidal Effect cockspur ([4]; 80 g/10a): 3
Herbicidal Effect garden radish (garden radish; 40 g/10a): 5
Herbicidal Effect garden radish (garden radish; 80 g/10a): 5
Herbicidal Effect aobiyu ([5]; 40 g/10a): 5
Herbicidal Effect aobiyu ([5]; 80 g/10a): 5
Herbicidal Effect mehishiba ([6]; 40 g/10a): 4
Herbicidal Effect mehishiba ([6]; 80 g/10a): 4
Herbicidal Effect ichibi ([7]; 4 g/10a): 5
Herbicidal Effect ichibi ([7]; 8 g/10a): 5
Herbicidal Effect onamomi ([8]; 4 g/10a): 4
Herbicidal Effect onamomi ([8]; 8 g/10a): 4
Herbicidal Effect noasagao ([9]; 4 g/10a): 4
Herbicidal Effect noasagao ([9]; 8 g/10a): 4
Herbicidal Effect ooinutade ([10]; 4 g/10a): 5
Herbicidal Effect ooinutade ([10]; 8 g/10a): 5
